Results on seven compounds are retold here after article PMC4409069 (PLoS ONE, 2015).

The subject of series [1] is A/Philippines/2/82/H3N2 (Phil82). The format is cell-based, influenza A virus. The note with it: for IC50: read-out: approximate 50% viral neutralizing concentration.
In series [2] the test system is A/California/04/09/H1N1 pandemic strain (Cal09). The format is cell-based, influenza A virus.
The subject of series [3] is A/New York/312/01/H1N1 (NY01) seasonal strain. The format is cell-based, influenza A virus.
Series [4] relates to Mex 1:7 (HA gene of A/Mexico/4108/09/H1N1 with the other 7 genes of NY01). The format is cell-based, influenza A virus.
Series [5] has as its system Mex 2:6 (HA and NA of A/Mexico/09/H1N1, other genes of NY01). The format is cell-based, influenza A virus.
A further series has as its system MDCK cells. The series can be described thus: LDH assay of cell viability, MDCK cells. The following applies: peptide 12.8 μM, 24 hrs, mean±SEM of 3 or 4 experiments. The format is cell-based, canine. Here is the method:
The LDH assay was performed using LDH cytoxicity detection kit (Clontech, CA, USA) according to the manufacturer’s instructions. In brief, MDCK cells were incubated with Phil82 IAV (with or without LL-37 and related peptides). Cells were also incubated with peptides alone. The incubation time (24 hrs) and assay conditions were exactly same as in fluorescent focus assays. The LDH activity was measured after the 24 hrs incubation of cells with IAV and/or peptides. Controls included uninfected/untreated cells as negative control (NC) and cells treated with lysis solution as positive control (PC). The percent cytotoxicity is obtained from OD values using the formula: [(Sample OD—NC OD) ÷ (PC OD—NC OD)] ×100

A further series has as its system HBTE cells. The series can be described thus: LDH assay of cell viability, HBTE cells. The format is cell-based, human. The following applies: 24 hrs, mean±SEM of 3 or 4 experiments.
Series [6] relates to hemagglutination activity of Phil82 IAV. As to the kind of experiment: Hemagglutination (HA) inhibition assay. The format is biochemical, influenza A virus. The note with it: concentrations up to 12μM, three experiments, human type O red cells. Here is the method:
HA inhibition was measured by serially diluting LL-37 peptides in round bottom 96 well plates (Serocluster U-Vinyl plates; Costar, Cambridge, MA) using PBS as a diluent and human type O red cells as described. 40 HA units of virus was used in the assay.

In series [7] the test system is neuraminidase (NA) activity of Phil82. The format is biochemical, influenza A virus.
A further series relates to NA activity of Cal09. The format is biochemical, influenza A virus.
The next series relates to NY01. The format is cell-based, influenza A virus.
In another series the test system is Cal09. The format is cell-based, influenza A virus.
Series [8] has as its system A/California/04/09/H1N1 pandemic strain (Cal09). The format is cell-based, influenza A virus. This is another data set of the same source.
The test system is the same in series [9]. The format is cell-based, influenza A virus. The source holds these as a separate data set.
Another series deals with A/PR/8/34/H1N1 (PR-8). The format is cell-based, influenza A virus.
[10] abbreviates: HBTE no IAV, peptide 12.8 μM, LL-23V9 n = 1, * significantly reduced vs control.
[11] abbreviates: HBTE+IAV (Phil82), peptide 12.8 μM, LL-23V9 n = 1, * significantly reduced vs control.
Setting [12] is: read-out: approximate 50% viral neutralizing concentration.

Read-outs that look alike come from different tables or passages of the source. Ends that are not written are not given here.

In the case of `CC[C@H](C)[C@H](NC(=O)[C@H](CCCCN)NC(=O)[C@H](CCC(=O)O)NC(=O)[C@H](CCCCN)NC(=O)[C@H](CO)NC(=O)[C@H](CCCCN)NC(=O)[C@H](CCCNC(=N)N)NC(=O)[C@H](Cc1ccccc1)NC(=O)[C@H](Cc1ccccc1)NC(=O)[C@H](CC(=O)O)NC(=O)CNC(=O)[C@H](CC(C)C)NC(=O)[C@@H](N)CC(C)C)C(=O)NCC(=O)N[C@@H](CCCCN)C(=O)N[C@@H](CCC(=O)O)C(=O)N[C@@H](Cc1ccccc1)C(=O)N[C@@H](CCCCN)C(=O)N[C@@H](CCCNC(=N)N)C(=O)N[C@H](C(=O)N[C@H](C(=O)N[C@@H](CCC(N)=O)C(=O)N[C@@H](CCCNC(=N)N)C(=O)N[C@H](C(=O)N[C@@H](CCCCN)C(=O)N[C@@H](CC(=O)O)C(=O)N[C@@H](Cc1ccccc1)C(=O)N[C@@H](CC(C)C)C(=O)N[C@@H](CCCNC(=N)N)C(=O)N[C@@H](CC(N)=O)C(=O)N[C@@H](CC(C)C)C(=O)N[C@H](C(=O)N1CCC[C@H]1C(=O)N[C@@H](CCCNC(=N)N)C(=O)N[C@H](C(=O)N[C@@H](CCC(=O)O)C(=O)N[C@@H](CO)C(=O)O)[C@@H](C)O)C(C)C)[C@@H](C)CC)C(C)C)[C@@H](C)CC` [LL-37, reference compound], the “antiviral (neutralizing) activity, in words” value (shortened to “antiviral”) in series [1] is “clear dose-related antiviral activity”. Moreover, the IC50 in series [1] was around 2 µg/mL. Further, the “effect on replication, in words” value in series [2] was “only slight inhibition at intermediate doses of LL-37 and actual enhancement of the replication of this strain at higher doses”; in [3], “clear dose related inhibition”; in [4], “inhibited at all concentrations tested”; in series [5] it was “inhibited by LL-37 at the lower concentration of 2.2μM but higher concentrations of LL-37 were not inhibitory”. Besides, the “% Viability of MDCK or HBTE Cells” value with MDCK cells (MDCK no IAV) is given as 92±11%; in the series on MDCK cells (MDCK+IAV (Phil82)), 99±12%; with HBTE cells (HBTE no IAV, peptide 6.4 μM) it was 95±2%; in the series with HBTE cells (setting [10]), 57±6* %; with HBTE cells (HBTE+IAV (Phil82), peptide 3.2 μM), 105±4%; in the series on HBTE cells (HBTE+IAV (Phil82), peptide 6.4 μM) it was 91±4%. The “% Viability of MDCK or HBTE Cells” value in the series on HBTE cells (setting [11]) is 55±6* %. The “inhibition of hemagglutination activity” value in series [6] was “No inhibition was observed”. The “inhibition of NA activity, in words” value in series [7] was “neither LL-37 nor the related peptides inhibited NA activity”; with NA activity of Cal09, “did not inhibit NA activity”. Also, the “concentrations that significantly decreased viral RNA in supernatants and cells” value with NY01 is at least 0.4 µM. In addition, the “viral RNA at 24 hrs after infection, in words” value is “significant reduction in RNA of NY01 in both cells and supernatant” with NY01; “trend to increase of Cal09 in the cells in presence of LL-37 but this was again highly variable and not statistically significant” with Cal09. In addition, the “viral uptake by MDCK cells (viral M protein RNA), in words” value with NY01 is reported as “significant reduction of uptake”. In addition, the “viral uptake by MDCK cells (viral M protein RNA in cell lysate), in words” value in the series with Cal09 was “no significant difference in viral uptake”.
`CCOC(=O)C1=C[C@@H](OC(CC)CC)[C@H](NC(C)=O)[C@@H](N)C1` [Oseltamivir]: the “inhibition of NA activity, in words” value in series [7] is reported as “marked reduction of NA activity”.
As to CRAMP [reference compound], the “effect on replication, in words” value in series [2] is “did not significantly inhibit”; in series [3] it was “inhibited (albeit modestly)”; in series [4], “inhibited (albeit modestly)”; in series [5], “did not significantly inhibit”.
On to GIKEFKRIVQRIKDFLRNLV-NH2 [GI-20], for which, in series [1], the “antiviral” value is reported as “approached or equaled that of full length LL-37”. Also, the “effect on replication, in words” value in series [2] was “significant inhibition”. The “effect on infectivity, in words” value in [8] and in series [9] was “significant inhibition” each time. The “% Viability of MDCK or HBTE Cells” value in the series on MDCK cells (MDCK no IAV) was 103±7%; in the series with MDCK cells (MDCK+IAV (Phil82)) it was 107±3%; in the series on HBTE cells (setting [10]), 103±3%; in the series on HBTE cells (setting [11]), 104±3%. The “inhibition of hemagglutination activity” value in series [6] is “No inhibition was observed”.
In the case of “HNP-1: the human defensin HNP-1 (human neutrophil peptide), purchased from Bachem [reference compound]”, the “effect on replication, in words” value in series [2] is “did inhibit Cal09”.
For the compound LLGDFFRKSKEKIGKEFKRIVQR [LL-23], the “antiviral” value in [1] is reported as “slight antiviral activity”. In addition, the “approximate 50% viral neutralizing concentration” value (in series [1]; in the series with A/PR/8/34/H1N1 (PR-8); in [3]) was >32μg/ml (>11.3 μM) each time. The IC50 (in [1]; in the series with A/PR/8/34/H1N1 (PR-8) (setting [12]); in series [3] (setting [12])) was above 11.3 µM throughout. In [2], the “effect on replication, in words” value is on record as “modest but statistically significant inhibition”. Further, the “effect on infectivity, in words” value in series [8] and in series [9] was “without activity” in each case. The “% Viability of MDCK or HBTE Cells” value is reported as 105±4% in the series on MDCK cells (MDCK no IAV), 101±11% in the series on MDCK cells (MDCK+IAV (Phil82)), 98±1% with HBTE cells (setting [10]) and 98±3% with HBTE cells (setting [11]). Also, the “inhibition of hemagglutination activity” value in [6] is on record as “No inhibition was observed”.
Regarding LLGDFFRKVKEKIGKEFKRIVQR [LL-23V9], the “antiviral” value in series [1] is “significantly increased activity compared to LL-23”. The “effect on replication, in words” value in series [2] is on record as “modest but statistically significant inhibition”. Further, the “effect on infectivity, in words” value in series [8] and in series [9] was “without activity” throughout. The “% Viability of MDCK or HBTE Cells” value in the series with MDCK cells (MDCK no IAV) was 112±6%; in the series with MDCK cells (MDCK+IAV (Phil82)), 108±7%; in the series with HBTE cells (setting [10]), 103%; in the series with HBTE cells (setting [11]), 99%. The “inhibition of hemagglutination activity” value in series [6] is on record as “No inhibition was observed”.
